Measured values reported in US7396837B2, “Antitumoral analogs of lamellarins” (Pharma Mar, S.A.U., priority 2002, dated 2008).
Where two headings read alike, the source gives them in different places.

Tests used:
Format in all cases: cell-based
SK-MEL-28 = test: SRB colorimetric cell growth inhibition assay, SK-MEL-28; conditions: Homo sapiens, SK-MEL-28, MEL-28; for GI50: GI=growth inhibition, read-out: GI50 MEL-28; for CC50: LC=cell killing (cytotoxic effect), read-out: LC50 MEL-28; for IC (TGI): TGI=total growth inhibition (cytostatic effect), read-out: TGI MEL-28
Method in brief: (§1)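 In this cytotoxicity screen, compound stays in contact with the cultured human cancer cells without washout; sulforhodamine B binding gives the measure of cell number, and endpoints separate growth inhibition from cytostasis (TGI) and killing (LC).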

HT-29 = test: SRB colorimetric cell growth inhibition assay, HT-29; conditions: Homo sapiens, HT-29, HT-29; for GI50: GI=growth inhibition, read-out: GI50 HT-29; for CC50: read-out: LC50 HT-29; for IC (TGI): read-out: TGI HT-29
Method in brief: as §1

A-549 = test: SRB colorimetric cell growth inhibition assay, A-549; conditions: Homo sapiens, A549, A-549; for GI50: GI=growth inhibition, read-out: GI50 A-549; for CC50: read-out: LC50 A-549; for IC (TGI): read-out: TGI A-549
Method in brief: as §1

SK-BR-3 = test: SRB colorimetric cell growth inhibition assay, SK-BR-3; conditions: Homo sapiens, SK-BR-3, SK-BR-3; for GI50: GI=growth inhibition, read-out: GI50 SK-BR-3; for CC50: LC=cell killing (cytotoxic effect), read-out: LC50 SK-BR-3; for IC (TGI): TGI=total growth inhibition (cytostatic effect), read-out: TGI SK-BR-3
Method in brief: as §1

IGROV = test: SRB colorimetric cell growth inhibition assay, IGROV; conditions: Homo sapiens, IGROV; for GI50: GI=growth inhibition, read-out: GI50 IGROV; for CC50: LC=cell killing (cytotoxic effect), read-out: LC50 IGROV; for IC (TGI): TGI=total growth inhibition (cytostatic effect), read-out: TGI IGROV
Method in brief: as §1

DU-145 = test: SRB colorimetric cell growth inhibition assay, DU-145; conditions: Homo sapiens, DU-145, DU-145; for GI50: GI=growth inhibition, read-out: GI50 DU-145; for CC50: LC=cell killing (cytotoxic effect), read-out: LC50 DU-145; for IC (TGI): TGI=total growth inhibition (cytostatic effect), read-out: TGI DU-145
Method in brief: as §1

[1] = SRB colorimetric cell growth inhibition assay, H-MEC-1; conditions: human, H-MEC-1 cells, H-MEC-1; LC=cell killing (cytotoxic effect); read-out: LC50 H-MEC-1
Method in brief: (§2)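 Growth and viability quantified by sulforhodamine B staining in 96-well microplates. Triplicate wells give mean ± SD; derived endpoints are GI, TGI (cytostatic) and LC (cytotoxic).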

H-MEC-1 = test: as above; conditions: Homo sapiens, HMEC-1, H-MEC-1; for GI50: GI=growth inhibition; for IC (TGI): TGI=total growth inhibition (cytostatic effect), read-out: TGI H-MEC-1
Method in brief: as §2

K-562 = test: SRB colorimetric cell growth inhibition assay, K-562; conditions: Homo sapiens, K562, K-562; for GI50: GI=growth inhibition, read-out: GI50 K-562; for CC50: read-out: LC50 K-562; for IC (TGI): read-out: TGI K-562
Method in brief: as §1

PANC-1 = test: SRB colorimetric cell growth inhibition assay, PANC-1; conditions: Homo sapiens, PANC-1, PANC-1; for GI50: GI=growth inhibition, read-out: GI50 PANC-1; for CC50: read-out: LC50 PANC-1; for IC (TGI): read-out: TGI PANC-1
Method in brief: as §1

LNCaP = test: SRB colorimetric cell growth inhibition assay, LNCaP; conditions: Homo sapiens, LNCaP, LN-caP; for GI50: GI=growth inhibition, read-out: GI50 LN-caP; for CC50: LC=cell killing (cytotoxic effect), read-out: LC50 LN-caP; for IC (TGI): TGI=total growth inhibition (cytostatic effect), read-out: TGI LN-caP
Method in brief: as §1

LoVo = test: SRB colorimetric cell growth inhibition assay, LoVo; conditions: Homo sapiens, LoVo; for GI50: GI=growth inhibition, read-out: GI50 LOVO; for CC50: read-out: LC50 LOVO; for IC (TGI): read-out: TGI LOVO
Method in brief: as §1

LoVo-Dox = test: SRB colorimetric cell growth inhibition assay, LoVo-Dox (MDR); conditions: Homo sapiens, LOVO-DOX; for GI50: GI=growth inhibition, read-out: GI50 LOVO-DOX; for CC50: read-out: LC50 LOVO-DOX; for IC (TGI): read-out: TGI LOVO-DOX
Method in brief: as §1

SKOV-3 = test: SRB colorimetric cell growth inhibition assay, SKOV-3; conditions: Homo sapiens; for GI50: SK-OV-3, SKOV-3, GI=growth inhibition, read-out: GI50 SKOV-3; for CC50 / IC (TGI): SK-OV-3, SKOV-3; for CC50: LC=cell killing (cytotoxic effect), read-out: LC50 SKOV-3; for IC (TGI): TGI=total growth inhibition (cytostatic effect), read-out: TGI SKOV-3
Method in brief: as §2

IGROV-ET = test: SRB colorimetric cell growth inhibition assay, IGROV-ET (ET-743 resistant); conditions: Homo sapiens, IGROV-ET; for GI50: GI=growth inhibition, read-out: GI50 IGROV-ET; for CC50: LC=cell killing (cytotoxic effect), read-out: LC50 IGROV-ET; for IC (TGI): TGI=total growth inhibition (cytostatic effect), read-out: TGI IGROV-ET
Method in brief: as §1

[2] = LC=cell killing (cytotoxic effect)
[3] = TGI=total growth inhibition (cytostatic effect)
[4] = cell killing (cytotoxic effect)
[5] = total growth inhibition (cytostatic effect)

## COc1cc2c(cc1OC)-c1c(-c3ccc(OS(C)(=O)=O)c(OC)c3)c3c4cc(OC)c(OS(C)(=O)=O)cc4oc(=O)c3n1CC2 [Compound 92]
SK-MEL-28
  GI50: 4.75 µM
  CC50: 14.9 µM
  IC (TGI): 10.1 µM
HT-29
  GI50: 14.9 µM
HT-29; [2]
  CC50: 14.9 µM
HT-29; [3]
  IC (TGI): 14.9 µM
A-549
  GI50: 14.9 µM
A-549; [2]
  CC50: 14.9 µM
A-549; [3]
  IC (TGI): 14.9 µM
SK-BR-3
  GI50: 4.35 µM
  CC50: 14.9 µM
  IC (TGI): 11.6 µM
IGROV
  GI50: 3.13 µM
  CC50: 14.1 µM
  IC (TGI): 6.64 µM
DU-145
  GI50: 14.9 µM
  CC50: 14.9 µM
  IC (TGI): 14.9 µM
[1]
  CC50: 14.9 µM
H-MEC-1
  GI50: 14.2 µM
  IC (TGI): 14.9 µM
K-562
  GI50: 2.23 µM
K-562; [2]
  CC50: 14.9 µM
K-562; [3]
  IC (TGI): 13.8 µM
PANC-1
  GI50: 5.42 µM
PANC-1; [2]
  CC50: 14.9 µM
PANC-1; [3]
  IC (TGI): 14.9 µM
LNCaP
  GI50: 0.167 µM
  CC50: 5.09 µM
  IC (TGI): 0.71 µM
LoVo
  GI50: 7.52 µM
LoVo; [2]
  CC50: 14.9 µM
LoVo; [3]
  IC (TGI): 14.9 µM
LoVo-Dox
  GI50: 2.14 µM
LoVo-Dox; [2]
  CC50: 14.9 µM
LoVo-Dox; [3]
  IC (TGI): 5.96 µM
SKOV-3
  GI50: 7.61 µM
  CC50: 14.9 µM
  IC (TGI): 14.9 µM
IGROV-ET
  GI50: 6.85 µM
  CC50: 14.9 µM
  IC (TGI): 14.9 µM

## COc1cc2c(cc1OC)-c1c(-c3ccc(OC(=O)CCc4ccccc4)c(OC)c3)c3c4cc(OC)c(OC(=O)CCc5ccccc5)cc4oc(=O)c3n1CC2 [Compound 93]
SK-MEL-28
  GI50: 4.57 µM
  CC50: 12.8 µM
  IC (TGI): 12.8 µM
HT-29
  GI50: 12.8 µM
HT-29; [4]
  CC50: 12.8 µM
HT-29; [5]
  IC (TGI): 12.8 µM
A-549
  GI50: 8.64 µM
A-549; [4]
  CC50: 12.8 µM
A-549; [5]
  IC (TGI): 12.8 µM
SK-BR-3
  GI50: 4.95 µM
  CC50: 12.8 µM
  IC (TGI): 12.8 µM
IGROV
  GI50: 3.37 µM
  CC50: 12.8 µM
  IC (TGI): 7.08 µM
DU-145
  GI50: 12.8 µM
  CC50: 12.8 µM
  IC (TGI): 12.8 µM
[1]
  CC50: 12.8 µM
H-MEC-1
  GI50: 12.8 µM
  IC (TGI): 12.8 µM
K-562
  GI50: 1.62 µM
K-562; [4]
  CC50: 4.36 µM
K-562; [5]
  IC (TGI): 2.65 µM
PANC-1
  GI50: 12.8 µM
PANC-1; [4]
  CC50: 12.8 µM
PANC-1; [5]
  IC (TGI): 12.8 µM
LNCaP
  GI50: 0.408 µM
  CC50: 7.08 µM
  IC (TGI): 1.27 µM
LoVo
  GI50: 12.8 µM
LoVo; [4]
  CC50: 12.8 µM
LoVo; [5]
  IC (TGI): 12.8 µM
LoVo-Dox
  GI50: 3.39 µM
LoVo-Dox; [4]
  CC50: 12.8 µM
LoVo-Dox; [5]
  IC (TGI): 11.7 µM
SKOV-3
  GI50: 6.26 µM
  CC50: 12.8 µM
  IC (TGI): 12.8 µM
IGROV-ET
  GI50: 11.7 µM
  CC50: 12.8 µM
  IC (TGI): 12.8 µM

## COc1cc(-c2c3n(c4c(=O)oc5cc(OC(=O)c6cc(F)c(F)c(F)c6F)c(OC)cc5c24)CCc2c-3cc(OC)c(OC)c2OC(=O)c2cc(F)c(F)c(F)c2F)ccc1OC(=O)c1cc(F)c(F)c(F)c1F [Compound 99]
SK-MEL-28
  GI50: 9.44 µM
  CC50: 9.44 µM
  IC (TGI): 9.44 µM
HT-29
  GI50: 9.44 µM
HT-29; [4]
  CC50: 9.44 µM
HT-29; [5]
  IC (TGI): 9.44 µM
A-549
  GI50: 9.44 µM
A-549; [4]
  CC50: 9.44 µM
A-549; [5]
  IC (TGI): 9.44 µM
SK-BR-3
  GI50: 9.44 µM
  CC50: 9.44 µM
  IC (TGI): 9.44 µM
IGROV
  GI50: 3.07 µM
  CC50: 9.44 µM
  IC (TGI): 9.44 µM
DU-145
  GI50: 9.44 µM
  CC50: 9.44 µM
  IC (TGI): 9.44 µM
[1]
  CC50: 7.42 µM
H-MEC-1
  GI50: 4.06 µM
  IC (TGI): 5.48 µM
K-562
  GI50: 0.972 µM
K-562; [4]
  CC50: 2.26 µM
K-562; [5]
  IC (TGI): 1.48 µM
PANC-1
  GI50: 9.44 µM
PANC-1; [4]
  CC50: 9.44 µM
PANC-1; [5]
  IC (TGI): 9.44 µM
LNCaP
  GI50: 4.46 µM
  CC50: 9.44 µM
  IC (TGI): 8.19 µM
LoVo
  GI50: 9.44 µM
LoVo; [4]
  CC50: 9.44 µM
LoVo; [5]
  IC (TGI): 9.44 µM
LoVo-Dox
  GI50: 9.44 µM
LoVo-Dox; [4]
  CC50: 9.44 µM
LoVo-Dox; [5]
  IC (TGI): 9.44 µM
SKOV-3
  GI50: 9.44 µM
  CC50: 9.44 µM
  IC (TGI): 9.44 µM
IGROV-ET
  GI50: 9.44 µM
  CC50: 9.44 µM
  IC (TGI): 9.44 µM

## COc1cc(-c2c3c4cc(OC)c(OC(C)C)cc4oc(=O)c3n3ccc4c(OC(C)C)c(OC)c(OC)c(COS(C)(=O)=O)c4c23)ccc1OC(C)C [Compound 101]
SK-MEL-28
  GI50: 13.1 µM
  CC50: 13.1 µM
  IC (TGI): 13.1 µM
HT-29
  GI50: 13.1 µM
HT-29; [4]
  CC50: 13.1 µM
HT-29; [5]
  IC (TGI): 13.1 µM
A-549
  GI50: 13.1 µM
A-549; [4]
  CC50: 13.1 µM
A-549; [5]
  IC (TGI): 13.1 µM
SK-BR-3
  GI50: 13.1 µM
  CC50: 13.1 µM
  IC (TGI): 13.1 µM
IGROV
  GI50: 11.9 µM
  CC50: 13.1 µM
  IC (TGI): 13.1 µM
DU-145
  GI50: 13.1 µM
  CC50: 13.1 µM
  IC (TGI): 13.1 µM
[1]
  CC50: 10.5 µM
H-MEC-1
  GI50: 4.66 µM
  IC (TGI): 6.99 µM
K-562
  GI50: 2.19 µM
K-562; [4]
  CC50: 5.73 µM
K-562; [5]
  IC (TGI): 3.53 µM
PANC-1
  GI50: 13.1 µM
PANC-1; [4]
  CC50: 13.1 µM
PANC-1; [5]
  IC (TGI): 13.1 µM
LNCaP
  GI50: 8.25 µM
  CC50: 13.1 µM
  IC (TGI): 13.1 µM
LoVo
  GI50: 13.1 µM
LoVo; [4]
  CC50: 13.1 µM
LoVo; [5]
  IC (TGI): 13.1 µM
LoVo-Dox
  GI50: 13.1 µM
LoVo-Dox; [4]
  CC50: 13.1 µM
LoVo-Dox; [5]
  IC (TGI): 13.1 µM
SKOV-3
  GI50: 0.791 µM
  CC50: 5.71 µM
  IC (TGI): 2.34 µM
IGROV-ET
  GI50: 13.1 µM
  CC50: 13.1 µM
  IC (TGI): 13.1 µM
